Where two headings read alike, the source gives them in different places.
How the values were obtained:
Assay type in all cases: cell-based
[1] = test system: HCV 2a JFH-1 Rluc cells (dicistronic genotype 2a JFH-1 replicon, RLuc reporter); assay: microbe, parasite or virus in culture; conditions: Hepatitis C virus, genotype 2a JFH-1 replicon, read-out: 2a JFH
How it was run: (§1)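 Replicons used: genotype 1b Con1, 1a H77, 2a JFH-1, and a 2a JFH-1 chimera with J6-strain NS5A (M31 present), all dicistronic.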

[2] = test system: HCV 3a RLuc cells (NS5A chimeric genotype 1b Con1 replicon with consensus genotype 3a NS5A gene); assay: microbe, parasite or virus in culture; conditions: Hepatitis C virus
How it was run: (§2)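 Replicon cells stably carrying the listed RLuc-encoding dicistronic replicons were seeded and treated with DMSO serial dilutions of compound (10 mM stocks) diluted into culture medium. After 72 h, cells were lysed and Renilla luciferase activity measured. EC50 was derived by non-linear regression.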

[3] = test system: HCV 1b RLuc cells (dicistronic genotype 1b Con1 replicon, RLuc reporter); assay: microbe, parasite or virus in culture; conditions: Hepatitis C virus, read-out: 1b (nM)
How it was run: as §1

[4] = test system: HCV 4a Rluc cells (NS5A chimeric genotype 1b Con1 replicon with genotype 4a NS5A gene); assay: microbe, parasite or virus in culture; conditions: Hepatitis C virus, read-out: 4a
How it was run: as §2

[5] = test system: HCV 1a RLuc cells (dicistronic genotype 1a H77 replicon, RLuc reporter); assay: microbe, parasite or virus in culture; conditions: Hepatitis C virus, read-out: 1a
How it was run: as §1

[6] = test system: HCV 2a Rluc cells (NS5A chimeric genotype 2a JFH-1 replicon with genotype 2a J6 strain NS5A gene, M31 present); assay: HCV replicon reporter assay, genotype 2a J6 (M31 present); conditions: Hepatitis C virus, read-out: 2a J6
Protocol: Evaluation of cell-based anti-HCV activity: Antiviral potency (EC50) was determined using a Renilla luciferase (RLuc)-based HCV replicon reporter assay. To perform the assay for genotype 1 and 2a JFH-1, HCV 1b RLuc cells (harboring a dicistronic genotype 1b Con1 replicon that encodes a RLuc reporter), or HCV 1a RLuc cells (harboring a dicistronic genotype 1a H77 replicon that encodes a RLuc reporter), or HCV 2a JFH-1 Rluc cells (harboring a dicistronic genotype 2a JFH-1 replicon that encodes a RLuc reporter) were dispensed into 384-well plates. To perform the assay for genotype 2a (with M31 present) or 2b, HCV 2a Rluc or 2b Rluc cells (both with M31 present) harboring a dicistronic NS5A chimeric genotype 2a JFH-1 replicon that encodes a RLuc reporter and either genotype 2a J6 strain NS5A gene or genotype 2b MD2b-1 NS5A gene (based on Los Alamos HCV database isolates, both with M31 present) respectively, were dispensed into 384-well plates. To perform the assay for genotype 3 and 4, HCV 3a RLuc or 4a Rluc cells harboring a dicistronic NS5A chimeric genotype 1b Con1 replicon that encodes a RLuc reporter and either a consensus genotype 3a NS5A gene or genotype 4a NS5A gene (based on Los Alamos HCV database isolates) respectively, were dispensed into 384-well plates. Compounds were re-suspended in DMSO at a concentration of 10 mM and serially diluted in DMSO either manually or using an automated pipeting instrument. Serially diluted compounds were mixed with cell culture media and added to the seeded cells. […] 72 hours later, cells were lysed and Renilla luciferase activity quantified as recommended by the manufacturer (Promega-Madison, Wis.). Non-linear regression was performed to calculate EC50 values.

[7] = read-out: 3a, Table 2, genotype 3a NS5A chimeric replicon
[8] = 72 h, Table 2, genotype 1a H77 replicon, 72 hours
[9] = read-out: 3a, genotype 3a replicon

| SMILES | EC50 ([1]; 72 h, Table 2, 72 hours) [nM] | EC50 [2, 7] [nM] | EC50 ([3]; 72 h) [nM] | EC50 [4] [nM] | EC50 [5, 8] [nM] | EC50 [6] [nM] | EC50 [1] [nM] | EC50 [2, 9] [nM] | EC50 [3] [nM] | EC50 ([5]; genotype 1a replicon) [nM] |
| --- | --- | --- | --- | --- | --- | --- | --- | --- | --- | --- |
| COC(=O)N[C@H](C(=O)N1CCC[C@H]1c1nc2ccc3cc(-c4ccc(-c5cnc([C@@H]6[C@H]7CC[C@H](C7)N6C(=O)[C@@H](NC(=O)OC)[C@@H](C)OC)[nH]5)cc4)ccc3c2[nH]1)C(C)C [Example 55] | 0.001 to 0.999 | 0.001 to 0.99 | 0.015 | 0.001 to 0.99 | 0.001 to 0.999 | > 44 | – | – | – | – |
| COC(=O)N[C@@H](C(=O)N1[C@@H]2CC[C@@H](C2)[C@H]1c1nc2ccc3cc(-c4ccc5c(ccc6nc([C@@H]7C[C@H]8C[C@H]8N7C(=O)[C@H](NC(=O)OC)c7ccccc7)[nH]c65)c4)ccc3c2[nH]1)c1ccccc1 [Example 406] | – | – | – | 0.001 to 0.99 | – | 0.001 to 0.999 | 0.001 to 0.999 | 0.001 to 0.99 | 0.017 | 0.001 to 0.999 |
| COC(=O)N[C@H](C(=O)N1[C@@H]2C[C@@H]2C[C@H]1c1ncc(-c2ccc(-c3ccc4c(ccc5nc([C@@H]6C[C@H]7C[C@H]7N6C(=O)[C@@H](NC(=O)OC)C(C)C)[nH]c54)c3)cc2F)[nH]1)C(C)C [Example 390] | – | – | – | 0.001 to 0.99 | – | > 44 | 0.001 to 0.999 | 1 to 4.99 | 0.003 | 0.001 to 0.999 |
| COC(=O)N[C@H](C(=O)N1CCC[C@H]1c1nc(Cl)c(-c2ccc3c(c2)OCc2c-3ccc(-c3[nH]c([C@@H]4CCCN4C(=O)[C@@H](NC(=O)OC)C(C)C)nc3Cl)c2F)[nH]1)C(C)C [Example 404] | – | – | – | 0.001 to 0.99 | – | > 44 | 0.001 to 0.999 | 0.001 to 0.99 | 0.008 | 0.001 to 0.999 |
| COC(=O)N[C@H](C(=O)N1[C@@H]2CC[C@@H](C2)[C@H]1c1nc2ccc3cc(-c4ccc(-c5cnc([C@@H]6C[C@H]7C[C@H]7N6C(=O)[C@@H](NC(=O)OC)C(C)C)[nH]5)c(F)c4)ccc3c2[nH]1)C(C)C [Example 391] | – | – | – | 0.001 to 0.99 | – | > 44 | 0.001 to 0.999 | > 5 | 0.009 | 0.001 to 0.999 |
| COC(=O)N[C@H](C(=O)N1CCC[C@H]1c1ncc(-c2cc3c4c(c2)COc2cc(-c5cnc([C@@H]6CCCN6C(=O)[C@@H](NC(=O)OC)C(C)C)[nH]5)cc(c2-4)CC3)[nH]1)C(C)C [Example 370] | – | – | – | 0.001 to 0.99 | – | > 44 | 0.001 to 0.999 | 0.001 to 0.99 | 0.028 | 0.001 to 0.999 |
| COC(=O)N[C@H](C(=O)N1CCC[C@H]1c1nc2ccc3cc(-c4ccc(-c5cnc([C@@H]6[C@H]7CC[C@H](C7)N6C(=O)[C@H](NC(=O)OC)c6ccccc6)[nH]5)cc4)ccc3c2[nH]1)C(C)C [Example 54] | 0.001 to 0.999 | 0.001 to 0.99 | 0.014 | 0.001 to 0.99 | 0.001 to 0.999 | > 44 | – | – | – | – |
| COC(=O)N[C@H](C(=O)N1CCC[C@H]1c1nc2ccc3cc(-c4ccc(-c5[nH]c([C@@H]6[C@H]7CC[C@H](C7)N6C(=O)[C@H](NC(=O)OC)c6ccccc6)nc5Cl)cc4)ccc3c2[nH]1)C(C)C [Example 402] | – | – | – | 0.001 to 0.99 | – | > 44 | 0.001 to 0.999 | 0.001 to 0.99 | 0.015 | 0.001 to 0.999 |
| COC(=O)N[C@H](C(=O)N1[C@@H]2CC[C@@H](C2)[C@H]1c1ncc(-c2ccc(-c3ccc4c(ccc5nc([C@@H]6CCCN6C(=O)[C@H](NC(=O)OC)c6ccccc6)[nH]c54)c3)cc2)[nH]1)C(C)C [Example 315] | – | – | – | 0.001 to 0.99 | – | 1 to 44 | 0.001 to 0.999 | 0.001 to 0.99 | 0.023 | 0.001 to 0.999 |
| COC(=O)N[C@H](C(=O)N1[C@@H]2CC[C@@H](C2)[C@H]1c1nc2ccc3cc(-c4ccc5c(ccc6nc([C@@H]7CCCN7C(=O)[C@H](NC(=O)OC)c7ccccc7)[nH]c65)c4)ccc3c2[nH]1)C1CCOCC1 [Example 345] | – | – | – | 0.001 to 0.99 | – | 0.001 to 0.999 | 0.001 to 0.999 | 0.001 to 0.99 | 0.066 | 0.001 to 0.999 |
